What was measured:
[1] = tested on: HFD-fed C57BL/6J mice; test: HFD-induced obesity and NAFLD in C57BL/6J mice treated with CRT0066101; format: in vivo, mouse; details: 10 mg/kg/day oral
Text: The mouse fat and liver tissues from the experimental mice were harvested after oral administration one and a half month.

[2] = tested on: C57BL/6NJ mice fed NASH diet; test: NASH diet-induced NASH in C57BL/6NJ mice treated with PKD3 inhibitor; format: in vivo, mouse
Text: The NASH diet D09100310, purchased from Research Diet, is a rodent diet with 40 kcal % Fat (mostly palm oil), 20 kcal % fructose and 2% cholesterol.
Furtherly, to investigate the therapeutic potential of PKD3 inhibitor against NASH, we devised an experimental approach to model advanced NAFLD. […] To explore potential mechanisms by which PKD3 inhibitor treatment protect against diet-induced NASH. We applied RNA sequencing of livers collected at endpoint.

[3] = tested on: WD-fed ApoE-/- mice
Experimental: To further test whether PKD3 inhibitor prevents NAFLD development, we first studied ApoE^−/− mice with Western diet (WD) induced HS, after 8 weeks on WD, we then treat the mice with PKD3 inhibitor by oral administration (low dose; 100 ug/10 g per day) on continue fed WD condition.

[4] = 100 ug/10 g per day oral, 6 weeks
[5] = 100 ug/10 g per day oral, vs vehicle

CC[C@@H](N)CNc1ccnc(-c2cc(-c3cnn(C)c3)ccc2O)n1 [CRT0066101]
body weight at end-point (FIG. 2C-2D) ([1]; one and a half month, vs vehicle): dramatically decreased
liver weight (FIG. 2F) ([1]; vs vehicle): significantly reduced
running distance of physical exercise on treadmill (FIG. 2J) ([1]; vs vehicle): increased
serum alanine-aminotransferase (ALT) (FIG. 2I) ([1]; vs vehicle): decreased
serum aspartate aminotransferase (AST) (FIG. 2H) ([1]; vs vehicle): decreased
size of adipocytes (FIG. 2K) ([1]; vs vehicle): considerably diminished
weight of fat tissue (FIG. 2L-2N) ([1]; vs vehicle): considerably diminished
liver histology (FIG. 2G) ([1]; vehicle mice had ballooning, hepatocyte death, severe fibrosis, fatty liver): almost normal liver morphology, little hepatic ballooning and fibrosis as well as lipid deposits
fast blood glucose (FIG. 2R) ([1]; HFD-fed mice): decreased
glucose tolerance, OGTT (FIG. 2P) ([1]; HFD-fed mice): improved
insulin sensitivity, ITT (FIG. 2O) ([1]; HFD-fed mice): improved
non-fast blood glucose (FIG. 2Q) ([1]; HFD-fed mice): decreased
BAT size and weight (FIG. 5I-5K) [2, 4]: reduction
NAS (FIG. 5G) [2, 4]: significantly decreased
gFAT size and weight (FIG. 5I-5K) [2, 4]: reduction
hepatic fibrosis (FIG. 5G) [2, 4]: significantly decreased
hepatomegaly induced by NASH diet [2, 4]: markedly attenuated
iFAT size and weight (FIG. 5I-5K) [2, 4]: reduction
liver fat (FIG. 5G) [2, 4]: significantly decreased
liver size (FIG. 5E-5F) [2, 4]: dramatically decreased
liver surface (FIG. 5E) [2, 4]: more smooth
liver weight (FIG. 5F) [2, 4]: dramatically decreased
nonfasting glucose (FIG. 5H) [2, 4]: most potent glucose-lowering effect
body weight at endpoint (FIG. 5C-5D) ([2]; 100 ug/10 g per day oral, 6 weeks, vs vehicle): reduced
body weight curve (FIG. 5B) ([2]; 12 weeks NASH diet, then 100 ug/10 g per day oral for 6 weeks on NASH diet, vs H2O): decreased
body fat (FIG. 3H-3K) [3, 5]: radically reduced
body weight at end-point (FIG. 3B) [3, 5]: decreased
liver weight (FIG. 3E) [3, 5]: decreased
fibrosis score (FIG. 3F) ([3]; H&E, Sirius Red, Oil Red O staining): alleviated
BAT (FIG. 3H-3K) ([3]; treat vs non-treat mice): no changes
GFAT (FIG. 3H-3K) ([3]; treat vs non-treat mice): no changes
hyperlipidemia, serum (FIG. 3G) ([3]; two months treatment): decreased
liver coloration (FIG. 3D) ([3]; yellowish coloration in vehicle mice): not any yellow color
